25 compounds from patent publication US20060135773A1, “Trisubstituted nitrogen modulators of tyrosine phosphatases” (priority 2004, published 2006) can be followed below.

The assay concerns the target T1, PTP-1B (Homo sapiens, UniProt P18031).
T1 construct: PTP-1B (purified, 1 mg/mL) as a 1:250 dilution
T1 sequence (P18031 1-321 limits assumed): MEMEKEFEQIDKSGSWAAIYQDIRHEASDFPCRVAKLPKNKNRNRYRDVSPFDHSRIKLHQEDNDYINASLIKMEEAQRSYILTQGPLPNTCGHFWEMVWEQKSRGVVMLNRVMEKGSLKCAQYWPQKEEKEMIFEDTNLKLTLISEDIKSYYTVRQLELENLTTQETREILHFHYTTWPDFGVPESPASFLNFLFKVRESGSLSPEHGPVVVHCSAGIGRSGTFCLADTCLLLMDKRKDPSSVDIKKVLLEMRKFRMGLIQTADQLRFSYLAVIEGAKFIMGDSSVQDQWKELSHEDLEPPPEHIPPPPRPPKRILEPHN
Description: pNPP tyrosine phosphatase inhibition assay, PTP-1B. It is filed as biochemical. The conditions noted are these: pNPP assay, PTP-1B; read-out: Activity Class (IC50 ranges). As for the experimental part:
The compounds provided herein are evaluated for biological activity as inhibitors of PTP-1B using, for example, a pNPP assay can be used to screen compounds for tyrosine phosphatase inhibitory activity as described in the Examples.
A 5× stock of pNPP (p-nitrophenol phosphate) substrate is prepared as 50 mM pNPP in assay buffer. Various tyrosine phosphatase solutions can be prepared as follows: • PTP-1B (purified, 1 mg/mL) as a 1:250 dilution (to a final concentration of 4:g/mL); • TC-PTP (NEB, 1000 units in 100:L) as a 1:50 dilution (to a final concentration of 2U/10:L (4:g/mL)); • CD45 (Calbiochem, 20:g, 400 units in 100:L) as a 1:50 dilution (to a final concentration of 0.8U/10:L (4:g/mL)); • LAR (NEB, 1000 units in 200:L) as a 1:75 dilution (to a final concentration of 0.7U/10:L (4:g/mL)); and • PTP-β (UBI, #14-350, 10,000 units, 40:g/571:L) as a 1:17.5 dilution (to a final concentration of 10U/10:L (4:g/mL));
The compound to be tested is prepared as 1:16.7 and 1:50 dilutions from stock in a total volume of […] DMSO to give final concentrations of 626 and 200:M. The reaction mixtures are prepared in a 96-well microtiter plate (on ice) as 55:L assay buffer, 5:L of the diluted compound (to a final concentration of 31.3 and 10:M), 20:L of the pNPP substrate solution (to a final concentration of 10 mM) and 20:L PTPase in assay buffer. The reactants are mixed well, the plate placed in a water bath at 30° C. and incubated for 10 minutes. The reaction is then terminated by adding 100:L of 2M K2CO3 per well, and the absorbance is measured at 405 nm by conventional means.
Unless otherwise indicated, this assay was used to determine activity for the selected compounds whose activity is provided in Table 1.
By IC50 is commonly meant the concentration at which inhibition is half-maximal. Take `O=C(O)c1ccc(CN(Cc2ccc(C(F)(F)P(=O)(O)O)c(Br)c2)S(=O)(=O)c2ccccc2Cl)cc1` [Compound 107, 4-{[[3-Bromo-4-(difluoro-phosphono-methyl)-benzyl]-(2-chloro-benzenesulfonyl)-amino]-methyl}-benzoic acid]: the IC50 is below 99 nM.

As for `O=P(O)(O)C(F)(F)c1ccc(CN(Cc2ccc(C(F)(F)P(=O)(O)O)c(Cl)c2)C2CCc3ccccc32)cc1Cl` (stereo not shown) [Compound 232, {[2-Chloro-4-({[3-chloro-4-(difluoro-phosphono-methyl)-benzyl]-indan-1-yl-amino}-methyl)-phenyl]-difluoro-methyl}-phosphonic acid], the 50% inhibitory concentration (IC50) is 250 to 499 nM.

`CCNc1ccc(S(=O)(=O)C(F)(F)F)cc1NC(=O)c1ccc(C)c(S(=O)(=O)N2CCCCC2)c1` [Compound 106, N-(2-Ethylamino-5-trifluoromethanesulfonyl-phenyl)-4-methyl-3-(piperidine-1-sulfonyl)-benzamide]: the half-inhibitory concentration (IC50) is above 25000 nM.

Consider `COc1ccccc1S(=O)(=O)N(Cc1ccc(C(F)(F)P(=O)(O)O)c(Cl)c1)Cc1ccccc1C` [Compound 167, [(2-Chloro-4-{[(2-methoxy-benzenesulfonyl)-(2-methyl-benzyl)-amino]-methyl}-phenyl)-difluoro-methyl]-phosphonic acid], for which the IC50 is 250 to 499 nM.

For `COc1ccccc1S(=O)(=O)N(Cc1ccc(C(F)(F)P(=O)(O)O)c(Cl)c1)Cc1ccccc1N1CCCCC1` [Compound 208, [(2-Chloro-4-{[(2-methoxy-benzenesulfonyl)-(2-piperidin-1-yl-benzyl)-amino]-methyl}-phenyl)-difluoro-methyl]-phosphonic acid], the IC50 was in the range of 250 to 499 nM.

For “Methyl 3-{4-[({[4-(difluorophosphonomethyl)-3-chlorophenyl]methyl}[(2-methoxyphenyl)sulfonyl]amino)methyl]phenyl}-5-bromobenzoate [Compound 194]”, the IC50 was in the range of 250 to 499 nM.

`COc1ccccc1S(=O)(=O)N(Cc1ccc(C(F)(F)P(=O)(O)O)c(Br)c1)c1ccc(S(C)(=O)=O)cc1` [Compound 114, [(2-Bromo-4-{[(4-methanesulfonyl-phenyl)-(2-methoxy-benzenesulfonyl)-amino]-methyl}-phenyl)-difluoro-methyl]-phosphonic acid]: the IC50 lay in the range of 100 to 249 nM.

`COc1ccc(OC)c(S(=O)(=O)N(Cc2ccc(C(O)CO)cc2)Cc2ccc(S(C)(=O)=O)cc2)c1` (stereo not shown) [Compound 119, N-[4-(1,2-Dihydroxy-ethyl)-benzyl]-N-(4-methanesulfonyl-benzyl)-2,5-dimethoxy-benzenesulfonamide]: the IC50 was above 25000 nM.

On to `COC(=O)c1ccc(CN(Cc2ccc(C(F)(F)P(=O)(O)O)c(Cl)c2)S(=O)(=O)c2ccccc2OC)cc1` [Compound 231, 4-{[[3-Chloro-4-(difluoro-phosphono-methyl)-benzyl]-(2-methoxy-benzenesulfonyl)-amino]-methyl}-benzoic acid methyl ester], for which the half-inhibitory concentration (IC50) was 250 to 499 nM.

Turning to `COc1ccccc1S(=O)(=O)N(Cc1ccc(C(=O)O)cc1)Cc1ccc(C(F)(F)P(=O)(O)O)c(Cl)c1` [Compound 233, 4-{[[3-Chloro-4-(difluoro-phosphono-methyl)-benzyl]-(2-methoxy-benzenesulfonyl)-amino]-methyl}-benzoic acid], the IC50 is 100 to 249 nM.

Regarding `COc1ccccc1S(=O)(=O)N(Cc1ccc(C(=NO)C(=O)O)cc1)Cc1ccc(S(C)(=O)=O)cc1` [Compound 126, Hydroxyimino-(4-{[(4-methanesulfonyl-benzyl)-(2-methoxy-benzenesulfonyl)-amino]-methyl}-phenyl)-acetic acid], the IC50 was above 25000 nM.

For `COc1ccccc1S(=O)(=O)N(Cc1cccc(-c2cccc(S(C)(=O)=O)c2)c1)Cc1ccc(C(F)(F)P(=O)(O)O)c(Cl)c1` [Compound 142, [(2-Chloro-4-{[(3′-methanesulfonyl-biphenyl-3-ylmethyl)-(2-methoxy-benzenesulfonyl)-amino]-methyl}-phenyl)-difluoro-methyl]-phosphonic acid], the IC50 is 250 to 499 nM.

Regarding `O=S(=O)(c1ccccc1Cl)N(Cc1ccc(NS(=O)(=O)C(F)(F)F)cc1)Cc1ccc(Cl)c(Cl)c1` [Compound 87, 2-Chloro-N-(3,4-dichloro-benzyl)-N-(4-trifluoromethanesulfonylamino-benzyl)-benzenesulfonamide], the IC50 is above 25000 nM.

As for “3-{4-[({[4-(difluorophosphonomethyl)-3-chlorophenyl]methyl}[(2-methoxyphenyl)sulfonyl]amino)methyl]phenyl}-5-bromobenzoic acid [Compound 195]”, the IC50 is below 99 nM.

`COc1ccccc1S(=O)(=O)N(Cc1ccc(-c2cccc(S(C)(=O)=O)c2)cc1)Cc1ccc(C(F)(F)P(=O)(O)O)c(Cl)c1` [Compound 148, [(2-Chloro-4-{[(3′-methanesulfonyl-biphenyl-4-ylmethyl)-(2-methoxy-benzenesulfonyl)-amino]-methyl}-phenyl)-difluoro-methyl]-phosphonic acid]: the IC50 was in the range of 100 to 249 nM.

On to `COc1ccccc1S(=O)(=O)N(Cc1ccc(C#N)cc1)Cc1ccc(Nc2c(O)c(=O)c2=O)cc1` [Compound 135, N-(4-Cyano-benzyl)-N-[4-(2-hydroxy-3,4-dioxo-cyclobut-1-enylamino)-benzyl]-2-methoxy-benzenesulfonamide], for which the IC50 is above 25000 nM.

As to `O=P(O)(O)C(F)(F)c1ccc(CN(Cc2ccc(-c3cccc(-c4nn[nH]n4)c3)cc2)S(=O)(=O)c2ccc(F)cc2Cl)cc1Cl` [Compound 169, {[2-Chloro-4-({(2-chloro-4-fluoro-benzenesulfonyl)-[3′-(2H-tetrazol-5-yl)-biphenyl-4-ylmethyl]-amino}-methyl)-phenyl]-difluoro-methyl}-phosphonic acid], the 50% inhibitory concentration (IC50) was below 99 nM.

With `COc1ccccc1S(=O)(=O)N(Cc1ccc(C(F)(F)P(=O)(O)O)c(Cl)c1)CC12CC3CC(CC(C3)C1)C2` [Compound 201, (Adamantanylmethyl){[4-(difluorophosphonomethyl)-3-chlorophenyl]methyl}[(2-methoxyphenyl)sulfonyl]amine], the half-inhibitory concentration (IC50) was in the range of 250 to 499 nM.

As for `COc1ccccc1S(=O)(=O)N(Cc1ccc(-c2cccc(C#N)c2)cc1)Cc1ccc(C(F)(F)P(=O)(O)OC)c(Cl)c1` [Compound 165, [(2-Chloro-4-{[(3′-cyano-biphenyl-4-ylmethyl)-(2-methoxy-benzenesulfonyl)-amino]-methyl}-phenyl)-difluoro-methyl]-phosphonic acid monomethyl ester], the IC50 fell in the range of 2500 to 25000 nM.

Turning to `CS(=O)(=O)N(Cc1ccc(C(F)(F)P(=O)(O)O)cc1)Cc1ccc(C(F)(F)P(=O)(O)O)cc1` [Compound 131, {[4-({[4-(Difluoro-phosphono-methyl)-benzyl]-methanesulfonyl-amino}-methyl)-phenyl]-difluoro-methyl}-phosphonic acid], the concentration for half-maximal inhibition (IC50) was in the range of 2500 to 25000 nM.

For the compound `N#Cc1cccc(S(=O)(=O)N(Cc2ccc(C(F)(F)P(=O)(O)O)c(Cl)c2)Cc2ccccc2-c2ccccc2)c1` [Compound 216, [(4-{[Biphenyl-2-ylmethyl-(3-cyano-benzenesulfonyl)-amino]-methyl}-2-chloro-phenyl)-difluoro-methyl]-phosphonic acid], the IC50 lay in the range of 250 to 499 nM.

For the compound `COc1ccccc1S(=O)(=O)N(Cc1ccc(C(F)(F)P(=O)(O)O)c(Cl)c1)Cc1ccccc1-c1cccc(C(N)=O)c1` [Compound 186, [(4-{[(3′-Carbamoyl-biphenyl-2-ylmethyl)-(2-methoxy-benzenesulfonyl)-amino]-methyl}-2-chloro-phenyl)-difluoro-methyl]-phosphonic acid], the concentration for half-maximal inhibition (IC50) was 100 to 249 nM.

Consider `N#Cc1ccccc1S(=O)(=O)N(Cc1ccc(Cl)c(Cl)c1)Cc1ccc(C(F)(F)P(=O)(O)O)c(Br)c1` [Compound 97, [(2-Bromo-4-{[(3,4-dichloro-benzyl)-(2-cyanobenzenesulfonyl)-amino]-methyl}-phenyl)-difluoro-methyl]-phosphonic acid], for which the half-maximal inhibitory concentration (IC50) is 250 to 499 nM.

In the case of “{[4-(difluorophosphonomethyl)-3-chlorophenyl]methyl}[(2-methoxyphenyl)sulfonyl](2-piperidylmethyl)amine [Compound 213]”, the IC50 lay within 2500 to 25000 nM.

Take “{[4-(difluorophosphonomethyl)-3-chlorophenyl]methyl}(cycloheptylmethyl)[(2-methoxyphenyl)sulfonyl]amine [Compound 202]”: the IC50 fell in the range of 100 to 249 nM.
